Laboratory results taken from patent US8735414B2 (priority 2009, dated 2014).

What was measured:
[1] = tested on: bicistronic HCV replicon (replicon RNA, GenBank Accession No. AJ242654); test: HCV Replicon Assay; type: cell-based; conditions: Hepatitis C virus, 72 h, read-out: Replicon IC50

SMILES: CCc1cc2c(cc1F)c(C(N)=O)c(-c1ccc(S(=O)(=O)NC(C)(C)C)cn1)n2-c1ccccc1 [compound 1109, 2-[5-(tert-butylsulfamoyl)pyridin-2-yl]-6-ethyl-5-fluoro-1-phenyl-1H-indole-3-carboxamide]
- IC50 [1]: < 500 nM
- melting point: 237.9 to 238.9 °C

SMILES: Cc1ccc2c(c1)c(C#N)c(-c1ncc(S(=O)(=O)NC(CF)CF)cn1)n2CC1CC1 [compound 524, 2-[3-cyano-1-(cyclopropylmethyl)-5-methyl-1H-indol-2-yl]-N-(1,3-difluoropropan-2-yl)pyrimidine-5-sulfonamide]
- IC50 [1]: < 500 nM
- melting point: 151 to 155 °C

SMILES: CC(C)NS(=O)(=O)c1ccc(-c2c(C#N)c3ccc(C#N)cc3n2CC2CC2)nc1 [compound 348, 6-[3,6-dicyano-1-(cyclopropylmethyl)-1H-indol-2-yl]-N-(propan-2-yl)pyridine-3-sulfonamide]
- IC50 [1]: 500 to 2000 nM
- melting point: 190 to 192 °C

SMILES: CC(C)(C)NS(=O)(=O)c1ccc(-c2c(C#N)c3cc(OC(F)F)ccc3n2C2CCC2)nc1 [compound 20, N-tert-butyl-6-[3-cyano-1-cyclobutyl-5-(difluoromethoxy)-1H-indol-2-yl]pyridine-3-sulfonamide]
- IC50 [1]: 500 to 2000 nM
- melting point: 167 to 170 °C

SMILES: C[C@@H](NS(=O)(=O)c1ccc(-c2c(C#N)c3ccc(Cl)cc3n2-c2ccccn2)nc1)C(F)(F)F [compound 489, 6-[6-chloro-3-cyano-1-(pyridin-2-yl)-1H-indol-2-yl]-N-[(2R)-1,1,1-trifluoropropan-2-yl]pyridine-3-sulfonamide]
- IC50 [1]: 500 to 2000 nM
- melting point: 198 to 199 °C

SMILES: CC(C)(NS(=O)(=O)c1ccc(-c2c(C#N)c3cc(F)ccc3n2-c2ncccn2)nc1)C(F)(F)F [compound 602, 6-[3-cyano-5-fluoro-1-(pyrimidin-2-yl)-1H-indol-2-yl]-N-(1,1,1-trifluoro-2-methylpropan-2-yl)pyridine-3-sulfonamide]
- IC50 [1]: 500 to 2000 nM
- melting point: 231 to 234 °C

SMILES: N#Cc1c(-c2ccc(S(=O)(=O)NC(CF)CF)cn2)n(C2CCC2)c2ccc(Cl)cc12 [compound 30, 6-(5-chloro-3-cyano-1-cyclobutyl-1H-indol-2-yl)-N-(1,3-difluoropropan-2-yl)pyridine-3-sulfonamide]
- IC50 [1]: < 500 nM
- melting point: 182 to 186 °C

SMILES: CC(C)(NS(=O)(=O)c1ccc(-c2c(C#N)c3cc(F)c(C4CC4)cc3n2C2CCCC2)nc1)C(F)(F)F [compound 831, 6-(3-cyano-1-cyclopentyl-6-cyclopropyl-5-fluoro-1H-indol-2-yl)-N-(1,1,1-trifluoro-2-methylpropan-2-yl)pyridine-3-sulfonamide]
- IC50 [1]: < 500 nM
- melting point: 183 to 185 °C

SMILES: N#Cc1c(-c2ccc(S(=O)(=O)NC(CF)CF)cn2)n(C2CCCCC2)c2cc(Cl)ccc12 [compound 89, 6-(6-chloro-3-cyano-1-cyclohexyl-1H-indol-2-yl)-N-(1,3-difluoropropan-2-yl)pyridine-3-sulfonamide]
- IC50 [1]: < 500 nM
- melting point: 203 to 207 °C

SMILES: CC(C)NS(=O)(=O)c1ccc(-c2c(C#N)c3cccc(F)c3n2C2CCCC2)nc1 [compound 66, 6-(3-cyano-1-cyclopentyl-7-fluoro-1H-indol-2-yl)-N-(propan-2-yl)pyridine-3-sulfonamide]
- IC50 [1]: < 500 nM
- melting point: 152 to 153 °C

SMILES: C[C@H](NS(=O)(=O)c1cnc(-c2c(C#N)c3ccc(F)cc3n2C2CCCC2)nc1)C(F)(F)F [compound 495, 2-(3-cyano-1-cyclopentyl-6-fluoro-1H-indol-2-yl)-N-[(2S)-1,1,1-trifluoropropan-2-yl]pyrimidine-5-sulfonamide]
- IC50 [1]: 2000 to 5000 nM
- melting point: 217 to 219 °C

SMILES: N#Cc1c(-c2ccc(S(=O)(=O)NC(CF)CF)cn2)n(C2CCC2)c2ccc(OC(F)(F)F)cc12 [compound 25, 6-[3-cyano-1-cyclobutyl-5-(trifluoromethoxy)-1H-indol-2-yl]-N-(1,3-difluoropropan-2-yl)pyridine-3-sulfonamide]
- IC50 [1]: 500 to 2000 nM
- melting point: 179 to 182 °C

SMILES: Cc1ccc2c(c1)c(C#N)c(-c1ccc(S(=O)(=O)NC(C)(C)C(F)(F)F)cn1)n2C1CCC1 [compound 480, 6-(3-cyano-1-cyclobutyl-5-methyl-1H-indol-2-yl)-N-(1,1,1-trifluoro-2-methylpropan-2-yl)pyridine-3-sulfonamide]
- IC50 [1]: < 500 nM
- melting point: 182 to 187 °C

SMILES: C[C@H](NS(=O)(=O)c1ccc(-c2c(C#N)c3cc(F)c(OC(F)F)cc3n2CC2CC2)nc1)C(F)(F)F [compound 787, 6-[3-cyano-1-(cyclopropylmethyl)-6-(difluoromethoxy)-5-fluoro-1H-indol-2-yl]-N-[(2S)-1,1,1-trifluoropropan-2-yl]pyridine-3-sulfonamide]
- IC50 [1]: < 500 nM
- melting point: 149 to 153 °C

SMILES: CC(C)(C)NS(=O)(=O)c1ccc(-c2c(C#N)c3cc(Cl)ccc3n2C2CCC2)nc1 [compound 15, N-tert-butyl-6-(5-chloro-3-cyano-1-cyclobutyl-1H-indol-2-yl)pyridine-3-sulfonamide]
- IC50 [1]: 500 to 2000 nM
- melting point: 195 to 197 °C

SMILES: N#Cc1c(-c2ccc(S(=O)(=O)NC3(C(F)(F)F)CC3)cn2)n(C2CCCC2)c2cc(OC(F)F)ccc12 [compound 94, 6-[3-cyano-1-cyclopentyl-6-(difluoromethoxy)-1H-indol-2-yl]-N-[1-(trifluoromethyl)cyclopropyl]pyridine-3-sulfonamide]
- IC50 [1]: < 500 nM
- melting point: 186 to 193 °C

SMILES: Cc1cc2c(cc1F)c(C(=O)O)c(-c1ncc(S(=O)(=O)NC(C)(C)C)cn1)n2C1CCC1 [compound 794, 2-[5-(tert-butylsulfamoyl)pyrimidin-2-yl]-1-cyclobutyl-5-fluoro-6-methyl-1H-indole-3-carboxylic acid]
- IC50 [1]: 2000 to 5000 nM
- melting point: 194 to 201 °C

SMILES: CC(C)NS(=O)(=O)c1cnc(-c2c(C#N)c3cc(F)ccc3n2C2CCCCC2)nc1 [compound 526, 2-(3-cyano-1-cyclohexyl-5-fluoro-1H-indol-2-yl)-N-(propan-2-yl)pyrimidine-5-sulfonamide]
- IC50 [1]: < 500 nM
- melting point: 223 to 225 °C

SMILES: C[C@H](NS(=O)(=O)c1ccc(-c2c(C#N)c3ccc(C(F)(F)F)cc3n2-c2ccccn2)nc1)C(F)(F)F [compound 952, 6-[3-cyano-1-(pyridin-2-yl)-6-(trifluoromethyl)-1H-indol-2-yl]-N-[(2S)-1,1,1-trifluoropropan-2-yl]pyridine-3-sulfonamide]
- IC50 [1]: < 500 nM
- melting point: 173 to 176 °C

SMILES: Cc1cc(-c2c(C#N)c3cc(F)ccc3n2-c2ccccn2)ncc1S(=O)(=O)N[C@@H](C)C(F)(F)F [compound 847, 6-[3-cyano-5-fluoro-1-(pyridin-2-yl)-1H-indol-2-yl]-4-methyl-N-[(2S)-1,1,1-trifluoropropan-2-yl]pyridine-3-sulfonamide]
- IC50 [1]: < 500 nM
- melting point: 180 to 186 °C

SMILES: Cc1cc2c(cc1F)c(C(N)=O)c(-c1ccc(S(=O)(=O)NC(C)(C)C(F)(F)F)cn1)n2C1CCCCC1 [compound 714, 1-cyclohexyl-5-fluoro-6-methyl-2-{5-[(1,1,1-trifluoro-2-methylpropan-2-yl)sulfamoyl]pyridin-2-yl}-1H-indole-3-carboxamide]
- IC50 [1]: < 500 nM
- melting point: 245 to 250 °C
